# Data as given in paper PMC9749938, “Alkyltriphenylphosphonium turns naphthoquinoneimidazoles into potent membrane depolarizers against mycobacteria” (RSC Medicinal Chemistry, 2022).
# Like-named read-outs stand apart in the source and are kept apart here.
# Assays:
# M. bovis BCG [1] = assay: microbe, parasite or virus in culture; type: cell-based, Mycobacterium bovis BCG; conditions: for MIC90 / MIC50 / IC50: Mycobacterium tuberculosis variant bovis BCG, BCG; for MIC50: read-out: M. bovis BCG MIC50, concentration reducing growth by 50% vs untreated controls; for M. bovis BCG MIC50: concentration reducing growth by 50% vs untreated controls; for M. bovis BCG MIC90: concentration reducing growth by 90% vs untreated controls; for IC50: read-out: M. bovis BCG MIC50
# Vero E6 cells = assay: Cytotoxicity on Vero E6 cells; type: cell-based, African green monkey; conditions: Chlorocebus sabaeus, Vero C1008; 48 h; reduces growth of Vero E6 by 50% vs untreated controls
# M. bovis BCG [2] = type: cell-based, Mycobacterium bovis BCG; conditions: 4× MIC90, up to 24 h
# M. bovis BCG [3] = type: cell-based, Mycobacterium bovis BCG
# M. bovis BCG-piniBAC-RFP = type: cell-based, Mycobacterium bovis BCG; conditions: 24 h, various concentrations
# M. bovis BCG-pfurA-RFP = type: cell-based, Mycobacterium bovis BCG; conditions: 24 h, 37 °C
# M. bovis BCG [4] = type: cell-based, Mycobacterium bovis BCG; conditions: 0.5× to 2× MIC90, 1.5 h + 30 min dye
# [5] = test system: inverted membrane vesicles of wild-type M. smegmatis mc^24517; assay: NADH oxidation in inverted membrane vesicles, WT; type: biochemical; conditions: for EC50: WT M. smegmatis mc^24517, read-out: EC50 of activation of NADH oxidation, WT IMV
# M. bovis BCG [6] = assay: microbe, parasite or virus in culture; type: cell-based; conditions: Mycobacterium tuberculosis variant bovis BCG, 120 h
# M. tb H37Rv = assay: MIC determination by broth dilution on M. tb H37Rv; type: cell-based; conditions: Mycobacterium tuberculosis
# [7] = Horseradish peroxidase-phenol red assay for H2O2 generation; type: biochemical; conditions: in vitro, with DTT
# M. bovis BCG [8] = type: cell-based, Mycobacterium bovis BCG; conditions: 4× MIC90, after 24 hours
# M. bovis BCG [9] = type: cell-based, Mycobacterium bovis BCG; conditions: 4× MIC90, up to 24 h; remark: listed apart in the source
# M. bovis BCG [10] = type: cell-based, Mycobacterium bovis BCG; conditions: 4× MIC90, time course to 24 h and after
# [11] = Aqueous solubility (Multiscreen solubility filter plates); type: physicochemical; conditions: pH 7.4, 24 h agitation
# [12] = read-out: MIC90 of control compounds (Fig. 4 legend), controls of redox assays, organism not restated
# [13] = read-out: M. bovis BCG MIC90, concentration reducing growth by 90% vs untreated controls, broth dilution
# [14] = Universal buffer with 1% DMSO, pH 7.4, 25 °C
SMILES,MIC50 (M. bovis BCG [1]; broth dilution) [µM],MIC90 (M. bovis BCG [1]; [13]) [µM],M. bovis BCG MIC50 (M. bovis BCG [1]; broth dilution),IC50 (Vero E6 cells) [µM],further results
"O=C1C=CC(=O)c2ccccc21 [NQ, 1,4-Naphthoquinone, reference compound]",,,,,MIC90 (M. bovis BCG [1]; [12]): 100 µM
Cc1nc2c(n1CCCCCCC[P+](c1ccccc1)(c1ccccc1)c1ccccc1)C(=O)c1ccccc1C2=O.[I-] [Compound 5],1.2,2.3,"1.2 (1.2, 1.2) μM",48.4,
CCCCCCC[P+](c1ccccc1)(c1ccccc1)c1ccccc1.[I-] [Compound 8],5.5,10.5,,,"M. bovis BCG MIC90 (M. bovis BCG [1]; broth dilution): 10.5 (10.2, 10.8) μM; Membrane potential (DiOC2(3) red/green ratio) (M. bovis BCG [2]): behaved similarly to 6 and 7"
Cc1nc2c(n1CCCCCCCCCCC[P+](c1ccccc1)(c1ccccc1)c1ccccc1)C(=O)c1cccnc1C2=O [Compound 15],0.65,1.2,,5.4,IC50 (M. bovis BCG [1]): 0.6 µM
Cc1nc2c(n1CCCCCCC[n+]1ccccc1)C(=O)c1ccccc1C2=O.[I-] [Compound 16],28.7,48.5,"28.7 (32.5, 25.0) μM",,"M. bovis BCG MIC90 (M. bovis BCG [1]; broth dilution): 48.5 (48.0, 49.0) μM"
"NNC(=O)c1ccncc1 [INH, isoniazid, reference compound]",,,,,MIC90 (M. bovis BCG [1]; [12]): 3.7 µM; Time-kill: CFU over 21 days (M. bovis BCG [3]): rapid decrease in CFU in the first two time points; Induction of piniBAC promoter (RFP fluorescence) (M. bovis BCG-piniBAC-RFP): increased piniBAC promoter activity
Cc1cc(=O)n(CCCCCCCCCCC[P+](c2ccccc2)(c2ccccc2)c2ccccc2)c2c1C(=O)c1ccccc1C2=O [Compound 13],3.8,5.7,,2.1,
"CCCCCCCCn1c2c([n+](CCCC)c1C)C(=O)c1ccccc1C2=O.[Br-] [Compound 45, reference compound]",,,,,Induction of pfurA promoter (RFP fluorescence) (M. bovis BCG-pfurA-RFP): discernible dose-dependent increase in the fluorescence signal; ROS formation in cultures (CellROX Green) (M. bovis BCG [4]): dose-dependent ROS formation; EC50 [5]: 0.2 µM; MIC90 (M. bovis BCG [1]; [12]): 0.32 µM
Cc1cc(=O)n(CCCCCCC[P+](c2ccccc2)(c2ccccc2)c2ccccc2)c2c1C(=O)c1ccccc1C2=O.[I-] [Compound 12],1,1.4,,5.9,"M. bovis BCG MIC90 (M. bovis BCG [1]; broth dilution): 1.4 (1.4, 1.4) μM"
Cc1nc2ccccc2n1CCCCCCC[P+](c1ccccc1)(c1ccccc1)c1ccccc1.[I-] [Compound 10],3.8,5.6,"3.8 (3.8, 3.8) μM",86.4,
Cc1nc2c(n1CCCCCCCCCCC[P+](C1CCCCC1)(C1CCCCC1)C1CCCCC1)C(=O)c1ccccc1C2=O.[I-] [Compound 18],0.6,0.9,"0.6 (0.6, 0.6) μM",4.1,
Cc1nc2ccccc2n1CCCCCCCCCCC[P+](c1ccccc1)(c1ccccc1)c1ccccc1.[I-] [Compound 11],0.9,1.4,,11.5,"M. bovis BCG MIC90 (M. bovis BCG [1]; broth dilution): 1.4 (1.4, 1.4) μM"
"CCCCn1c2c([n+](C3CCC4(CCCCC4)CC3)c1C)C(=O)c1ccccc1C2=O.[Br-] [Compound 44, reference compound]",,,,,Induction of pfurA promoter (RFP fluorescence) (M. bovis BCG-pfurA-RFP): discernible dose-dependent increase in the fluorescence signal; ROS formation in cultures (CellROX Green) (M. bovis BCG [4]): dose-dependent ROS formation; EC50 [5]: 0.76 µM; MIC90 (M. bovis BCG [1]; [12]): 0.32 µM
Cc1nc2c(n1CCCCCCC[P+](C1CCCCC1)(C1CCCCC1)C1CCCCC1)C(=O)c1ccccc1C2=O.[I-] [Compound 17],1.3,2.5,"1.3 (1.3, 1.3) μM",24.4,
CCCCCCCCCCC[P+](c1ccccc1)(c1ccccc1)c1ccccc1.[I-] [Compound 9],2.1,2.8,,,Membrane potential (DiOC2(3) red/green ratio) (M. bovis BCG [2]): behaved similarly to 6 and 7
Cc1nc2c(n1CCCCCCCCCCC[P+](c1ccccc1)(c1ccccc1)c1ccccc1)C(=O)c1ccccc1C2=O.[I-] [Compound 7],0.5,≤ 1,,5.6,"Induction of pfurA promoter (RFP fluorescence) (M. bovis BCG-pfurA-RFP): not observed; ROS formation in cultures (CellROX Green) (M. bovis BCG [4]): negligible levels of ROS; Activation of NADH oxidation, WT IMV ([5]; WT M. smegmatis): negligible activation of NADH oxidation; IC50 (M. bovis BCG [1]): 0.55 µM; MBC (M. bovis BCG [6]; read-out: M. bovis BCG MBC90): 1.6 µM; MBC (M. bovis BCG [6]; read-out: M. bovis BCG MBC99): 3.1 µM; MBC (M. bovis BCG [6]; read-out: M. bovis BCG MBC99.9): 6.2 µM; MIC50 (M. tb H37Rv): 1.15 µM; MIC90 (M. tb H37Rv): 1.8 µM; H2O2 generation, HRP-phenol red assay [7]: negligible H2O2 generation; CFU count of treated cultures (M. bovis BCG [8]): remained relatively constant; Membrane permeabilization (SYTO9/PI green/red ratio) (M. bovis BCG [9]): not accompanied by membrane permeabilization; Intracellular ATP levels (M. bovis BCG [10]): initial drop in ATP levels; solubility at 24 h [11, 14]: 27 µM; Induction of piniBAC promoter (RFP fluorescence) (M. bovis BCG-piniBAC-RFP): no increase in fluorescence; Membrane potential (DiOC2(3) red/green ratio) (M. bovis BCG [2]): rapid and sustained loss of membrane potential"
Cc1nc2c(n1CCCCCCCCC[P+](c1ccccc1)(c1ccccc1)c1ccccc1)C(=O)c1ccccc1C2=O.[I-] [Compound 6],0.59,1,"0.58 (0.6, 0.59) μM",12.4,"Induction of pfurA promoter (RFP fluorescence) (M. bovis BCG-pfurA-RFP): not observed; ROS formation in cultures (CellROX Green) (M. bovis BCG [4]): negligible levels of ROS; MBC (M. bovis BCG [6]; read-out: M. bovis BCG MBC90): 1.6 µM; MBC (M. bovis BCG [6]; read-out: M. bovis BCG MBC99): 3.1 µM; MBC (M. bovis BCG [6]; read-out: M. bovis BCG MBC99.9): 6.2 µM; MIC50 (M. tb H37Rv): 0.37 µM; MIC90 (M. tb H37Rv): 0.8 µM; H2O2 generation, HRP-phenol red assay [7]: negligible H2O2 generation; CFU count of treated cultures (M. bovis BCG [8]): remained relatively constant; Time-kill: CFU over 21 days (M. bovis BCG [3]): steady decrease of CFU up to day 8; Membrane permeabilization (SYTO9/PI green/red ratio) (M. bovis BCG [9]): not accompanied by membrane permeabilization; Intracellular ATP levels (M. bovis BCG [10]): initial drop in ATP levels; solubility at 24 h ([11]; 25 °C): 105.8 µM; solubility at 24 h [11, 14]: 106 µM; Induction of piniBAC promoter (RFP fluorescence) (M. bovis BCG-piniBAC-RFP): no increase in fluorescence; Membrane potential (DiOC2(3) red/green ratio) (M. bovis BCG [2]): rapid and sustained loss of membrane potential"
O=C1c2ccccc2C(=O)c2c1nc(C(F)(F)F)n2CCCCCCCCCCC[P+](c1ccccc1)(c1ccccc1)c1ccccc1 [Compound 14],1.8,2.8,,5.6,
Cc1nc2c(n1CCC[P+](c1ccccc1)(c1ccccc1)c1ccccc1)C(=O)c1ccccc1C2=O.[I-] [Compound 3],4,5.6,"4.0 (4.0, 4.0) μM",> 400,
Cc1nc2c(n1CCCCC[P+](c1ccccc1)(c1ccccc1)c1ccccc1)C(=O)c1ccccc1C2=O.[I-] [Compound 4],2.4,4.6,,> 400,"M. bovis BCG MIC90 (M. bovis BCG [1]; broth dilution): 4.6 (4.6, 4.6) μM"
CCCCCC[P+](CCCCCC)(CCCCCC)CCCCCCCn1c(C)nc2c1C(=O)c1ccccc1C2=O.[I-] [Compound 19],0.7,1.4,"0.7 (0.7, 0.7) μM",5.2,"M. bovis BCG MIC90 (M. bovis BCG [1]; broth dilution): 1.4 (1.4, 1.4) μM"
